# Like-named read-outs stand apart in the source and are kept apart here. Non-standard residues stand in square brackets, D forms with d. Residues, ends and D or L forms follow the SMILES beside them.
# Tests used:
# [1] = system: S. aureus (MRSA) ATCC 33591; type: cell-based, Staphylococcus aureus; details: for MRSA (in vitro activity): Table 9
# Method in brief: (§1)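 First, peptide stocks in 5% DMSO/9% sucrose were quantified and diluted 2-fold over roughly 400-2 μg/ml. Next, overnight cultures were diluted 4000-fold to ~2.5×10^5 cfu/ml and combined with peptide. Minimum inhibitory concentrations followed NCCLS broth macro- or microdilution procedures.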
# E. coli JM109(DE3) = type: cell-based, Escherichia coli
# Method in brief: as §1
# murine red blood cells = assay: Red blood cell hemolysis; type: cell-based, mouse; parameters: RBC Hemolysis (HD50): unit not given here; details: for RBC Hemolysis (HD50): Table 9
# Method in brief: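 Washed murine erythrocytes at 5% in saline with 10% FBS were exposed to serial peptide dilutions for 30 min at 37° C. Supernatant absorbance at 560 nm was read, with saline as 0% and 1% Triton X-100 as 100% hemolysis.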
# [2] = system: vancomycin-resistant Enterococus faecalis (VRE)(ATCC 51575); type: cell-based, Enterococcus faecalis; details: for VRE (in vitro activity): Table 9
# Method in brief: as §1
# [3] = system: Bacillus cereus ATCC 11778; type: cell-based; details: Table 10
# Method in brief: as §1
# [4] = trypsin, α-chymotrypsin, subtilisin, blood plasma; RP-HPLC over 24 h
# Experimental: Cyclic peptides having SEQ ID NO:13, 18, 26, and 29 were assayed for proteolytic susceptibility.
# [5] = system: E. coli (EL744) K12 (tolC::kan); assay: microbe, parasite or virus in culture; type: cell-based, Escherichia coli
# Experimental: (§2) The antimicrobial activity of the peptides was determined using a broth dilution assay essentially as descried in the guidelines of the National Committee for […] (NCCLS) [National Committee for Clinical Laboratory Standards. Methods for dilution antimicrobial susceptibility tests for bacteria that grow aerobically. Fourth edition. Approved Standard (1997). Document M7-A4. […] The microdilution method has the advantages of requiring less amount of peptide for each assay and the possibility of multiple simultaneous inoculations and was used in most studies. Several of the strains of bacteria tested are further described in Table 3.
# (§3) Preparation of peptide solutions. Stock peptide solutions were prepared in 5% DMSO in aq. sucrose (9%). Determination of peptide concentrations was done by quantitative HPLC analysis using known concentrations of internal standards and/or by measuring UV absorption of tryptophane-containing peptide solutions in H2O (λ=280 εTrp: 5690). Serial 2-fold dilutions were made in the above DMSO/aq. sucrose (9%) mixture with concentrations ranging approximately 400-2 μg/ml and aliquots were dispensed in test tubes (100 μl) for the macrodilution test or in microtiter plates (20 μl) for the microdilution assays.
# (§4) Inoculum preparation. Overnight cultures of different microorganisms grown in suitable media were diluted 4000 times to an approximate inoculum size of 2.5×10^5 cfu/ml.
# (§5) Macrodilution method. Macrodilution methods were performed using procedures similar to those described in the National Committee for Clinical Laboratory Standards. Methods for dilution antimicrobial susceptibility tests for bacteria that grow aerobically. Fourth edition. Approved Standard (1997). Document M7-A4. (NCCLS,Villanova, Pa., 1997). Two ml aliquots of the above inoculum were dispensed to test tubes containing different peptide solutions.
# (§6) Microdilution method. Microdilution methods were performed using procedures similar to those described in the National Committee for Clinical Laboratory Standards. Methods for dilution antimicrobial susceptibility tests for bacteria that grow aerobically. Fourth edition. Approved Standard (1997). Document M7-A4.
# E. coli (K12) = assay: microbe, parasite or virus in culture; type: cell-based, Escherichia coli
# Experimental: as §2, §3, §4, §5, §6
# H. influenzae ATCC 49247 = assay: microbe, parasite or virus in culture; type: cell-based, Hemophilus influenzae
# Experimental: as §2, §3, §4, §5, §6
# E. faecalis ATCC 51299 = assay: microbe, parasite or virus in culture; type: cell-based, Enterococcus faecalis
# Experimental: as §2, §3, §4, §5, §6
# E. faecium SP180 = assay: microbe, parasite or virus in culture; type: cell-based, Enterococcus faecium
# Experimental: as §2, §3, §4, §5, §6
# S. aureus ATCC 33592 = assay: microbe, parasite or virus in culture; type: cell-based, Staphylococcus aureus
# Experimental: as §2, §3, §4, §5, §6
# [6] = system: S. aureus (MRSA) (ATCC No. 33592); assay: Time-killing curve, S. aureus MRSA ATCC 33592; type: cell-based, Staphylococcus aureus
# Experimental: The speed at which several of the cyclic peptides of the invention kill E. coli JM 109 (DE3), Enterococcus faecium SP 180 and S. aureus (MRSA) (ATCC No. 33591 and 33592) was further tested at room temperature and/or at 37° C. A lower temperature tends to enrich the bacterial cultures for mature bacteria because the bacteria are not growing quickly. […] The presence or absence of immature bacteria in the culture may influence the rate at which the bacteria are killed, because immature bacteria tend to be more susceptible to many forms of antibiotics.
# FIGS. 9 and 10 illustrate the time course for killing S. aureus (MRSA) (ATCC No. 33592) with varying concentrations of cyclo[KSKWLWLW] cyclic peptide (SEQ ID NO:12) at room temperature and at 37° C. […] This may be due to growth of a few survivors after the residual cyclic peptide within the culture has been exhausted because the amount of peptide employed in that assay was below the MIC value.
# [7] = Human; cited from earlier work
smiles,measurement,setting,value
CC(C)C[C@H]1NC(=O)[C@H](Cc2c[nH]c3ccccc23)NC(=O)[C@@H](CCCCN)NC(=O)[C@H](Cc2c[nH]cn2)NC(=O)[C@@H](CO)NC(=O)[C@H](Cc2c[nH]c3ccccc23)NC(=O)[C@@H](CC(C)C)NC(=O)[C@H](Cc2c[nH]c3ccccc23)NC1=O [SEQ ID NO:13] (cyclo([dS]H[dK]W[dL]W[dL]W)),S. aureus (MRSA) MIC,"[1]; Table 6, ATCC 33591",10 µg/mL
same,MRSA (in vitro activity),[1]; media a: anti-microbial media-3 (AM-3),10
same,MRSA MIC,"[1]; Table 10, ATCC 33591",10 µg/mL
same,E. coli MIC,"E. coli JM109(DE3); Table 6, JM109(DE3)",100 µg/mL
same,RBC Hemolysis (HD50),murine red blood cells,35
same,VRE (in vitro activity),[2]; media a: AM-3,40
same,VRE MIC,"[2]; Table 10, ATCC 51575",40 µg/mL
same,B. cerius MIC,[3],12 µg/mL
same,proteolytic stability,[4],stable
"CC1(C)S[C@@H]2[C@H](NC(=O)Cc3ccccc3)C(=O)N2[C@H]1C(=O)O [Penicillin G, reference compound]",E. coli (EL744) K12 (tolC::kan) MIC,[5]; MHII broth,16 µg/mL
same,E. coli (K12) MIC,E. coli (K12); MHII broth,32 µg/mL
same,H. influenzae ATCC 49247 MIC,H. influenzae ATCC 49247; HTM,4 µg/mL
same,E. faecalis ATCC 51299 MIC,E. faecalis ATCC 51299; BHI broth,0.5 µg/mL
same,E. faecium SP180 MIC,E. faecium SP180; BHI broth,128 µg/mL
same,S. aureus ATCC 33592 MIC,S. aureus ATCC 33592; MHII broth,64 µg/mL
same,reduction of cfu,"[6]; 512 μg/ml, 37° C.",effective in reducing the number of cfu within four hours
same,killing or reducing S. aureus (MRSA) population,"[6]; room temperature, 0-8 hours, up to 512 μg/ml",no concentration of penicillin G assayed up to 512 μg/ml was effective
CC[C@H]1OC(=O)[C@H](C)[C@@H](O[C@H]2C[C@@](C)(OC)[C@@H](O)[C@H](C)O2)[C@H](C)[C@@H](O[C@@H]2O[C@H](C)C[C@H](N(C)C)[C@H]2O)[C@](C)(O)C[C@@H](C)C(=O)[C@H](C)[C@@H](O)[C@]1(C)O [Erythromycin],Kel elimination rate constant,[7],0.58 h⁻¹
same,T1/2 half life time,[7],1.2 h
"CC(C)C[C@H]1NC(=O)[C@H](CCCNC(=N)N)NC(=O)[C@@H](CCCNC(=N)N)NC(=O)[C@H](Cc2c[nH]c3ccccc23)NC(=O)[C@@H](CC(C)C)NC(=O)[C@H](Cc2c[nH]c3ccccc23)NC1=O [SEQ ID NO:29, cyclo-(D-Arg-Arg-D-Leu-Trp-D-Leu-Trp)] (cyclo(R[dL]W[dL]W[dR]))",S. aureus (MRSA) MIC,[1]; ATCC 33591,35 µg/mL
same,E. coli MIC,E. coli JM109(DE3); JM109,5 µg/mL
same,Hemolysis HD50,murine red blood cells; red cells of murine,90 µg/mL
same,proteolytic stability,[4],stable
"CN[C@H](CC(C)C)C(=O)N[C@H]1C(=O)N[C@@H](CC(N)=O)C(=O)N[C@H]2C(=O)N[C@H]3C(=O)N[C@H](C(=O)N[C@H](C(=O)O)c4cc(O)cc(O)c4-c4cc3ccc4O)[C@H](O)c3ccc(c(Cl)c3)Oc3cc2cc(c3O[C@@H]2O[C@H](CO)[C@@H](O)[C@H](O)[C@H]2O[C@H]2C[C@](C)(N)[C@H](O)[C@H](C)O2)Oc2ccc(cc2Cl)[C@H]1O [Vancomycin, reference compound]",MRSA (in vitro activity),[1]; media b: cation adjusted Meuller Hinton broth (MHBII),VANCOMYCIN <1.8
same,RBC Hemolysis (HD50),murine red blood cells,>240
same,VRE (in vitro activity),[2]; media c: Brain Heart Infusion (BHI),>240
same,MIC,"[5]; Escherichia coli, read-out: E. coli (EL744) K12 (tolC::kan) MIC",128 µg/mL
same,MIC,"E. coli (K12); Escherichia coli, read-out: E. coli (K12) MIC",128 µg/mL
same,MIC,"H. influenzae ATCC 49247; Haemophilus influenzae, ATCC49247, read-out: H. influenzae ATCC 49247 MIC",128 µg/mL
same,MIC,"E. faecalis ATCC 51299; Enterococcus faecalis, ATCC51299, read-out: E. faecalis ATCC 51299 MIC",32 µg/mL
same,MIC,"E. faecium SP180; Enterococcus faecium, SP180, read-out: E. faecium SP180 MIC",> 128 µg/mL
same,MIC,"S. aureus ATCC 33592; Staphylococcus aureus, ATCC33592, read-out: S. aureus ATCC 33592 MIC",0.5 µg/mL
same,CL total clearance,[7],66 mL/min
same,Kel elimination rate constant,[7],0.12 h⁻¹
same,T1/2 half life time,[7],6 h
same,VD volume of distribution,[7],0.47 L/kg

# Reference: patent US20050107289A1, “Anti-microbial peptides and compositions” (priority 2001, published 2005)
